The source of these data is article PMC10182977 (Nature Communications, 2023).

In one series the target is T1, xlCHPT1 (Xenopus laevis, UniProt Q4KLV1).
T1 construct: gene chpt1; full-length, codon-optimized; C-terminal His6-tag cleaved with TEV protease; Hi Five (Trichoplusia ni) baculovirus; detergent-purified homodimer; residues 20-383 modelled
T1 sequence (Q4KLV1 1-402): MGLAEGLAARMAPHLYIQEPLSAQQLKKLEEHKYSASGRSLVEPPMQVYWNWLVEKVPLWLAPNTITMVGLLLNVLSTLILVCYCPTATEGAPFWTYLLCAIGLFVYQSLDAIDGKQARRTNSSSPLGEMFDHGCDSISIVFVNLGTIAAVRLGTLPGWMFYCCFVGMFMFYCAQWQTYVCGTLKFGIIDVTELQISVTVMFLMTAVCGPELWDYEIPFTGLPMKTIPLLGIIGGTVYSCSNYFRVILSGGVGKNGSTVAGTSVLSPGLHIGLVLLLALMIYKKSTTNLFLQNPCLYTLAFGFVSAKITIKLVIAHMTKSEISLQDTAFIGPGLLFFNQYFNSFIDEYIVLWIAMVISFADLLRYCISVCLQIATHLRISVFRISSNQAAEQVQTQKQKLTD
Put plainly: cryo-EM structure, ~[…] Å. The series is classed as binding. The note with it: Mg2+ complex; 10 mM CDP and 0.5 mM DAG added; CDP-choline active site.

Series [1] concerns the molecule itself. Put plainly: cryo-EM structure; single-particle cryo-EM of purified xlCHPT1 in 20 mM HEPES, 150 mM NaCl, 2 mM BME, 4 mM MgCl2, 0.02% GDN; with 10 mM CDP-choline, or with 10 mM CDP and 0.5 mM DAG; refined with C2 symmetry.

Take `Nc1ccn([C@@H]2O[C@H](COP(=O)(O)OP(=O)(O)O)[C@@H](O)[C@H]2O)c(=O)n1` [CDP]: the “cryo-EM structure, ~3.2 Å” value on xlCHPT1 is recorded as “xlCHPT1 in complex with CDP have been deposited in the PDB under the accession code 8ERO”.

B1: Xenopus laevis cholinephosphotransferase-1 (enzyme, UniProt Q4KLV1 1-402, looked up)
chain: T1 sequence (Q4KLV1 1-402)
notes: cholinephosphotransferase-1 (CHPT1) of Xenopus laevis, full length, codon-optimized gene; residues 20-383 are resolved in the cryo-EM models, the first 19 and the last 18 residues are not resolved; The His6 tag was cleaved with TEV protease; residues of the cleavage site may be left at the C-terminus; also called xlCHPT1; CHPT1; source: Hi Five (Trichoplusia ni) cells, baculovirus, purified (LMNG …)
For B1, the “stoichiometry N” value in series [1] is 2.
